This note sets out measurements from patent US10508077B2 (FORMA Therapeutics, Inc., priority 2015, dated 2019).

For this assay, the target named is T1, Full length human recombinant HDAC8 protein (Homo sapiens, UniProt Q9BY41).
T1 construct: Full length human recombinant HDAC8 protein was expressed in baculoviral system; made in house
T1 sequence (Q9BY41 1-377): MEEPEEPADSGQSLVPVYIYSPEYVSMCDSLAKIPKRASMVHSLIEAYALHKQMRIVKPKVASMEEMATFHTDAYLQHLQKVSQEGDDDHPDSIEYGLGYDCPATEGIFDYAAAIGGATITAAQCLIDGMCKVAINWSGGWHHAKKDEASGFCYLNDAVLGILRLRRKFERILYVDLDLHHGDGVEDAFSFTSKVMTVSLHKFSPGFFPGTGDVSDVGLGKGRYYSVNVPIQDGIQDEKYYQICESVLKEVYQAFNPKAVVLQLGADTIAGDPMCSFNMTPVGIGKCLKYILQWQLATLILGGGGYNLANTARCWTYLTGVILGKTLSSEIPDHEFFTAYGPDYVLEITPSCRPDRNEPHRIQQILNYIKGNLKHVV
Briefly: In vitro histone deacetylase assay: enzymatic HDAC8 assay, electrophoretic mobility shift. The assay is classed as biochemical. The following applies: substrate RHKK(Ac)-NH2, 1 nM enzyme, compounds listed under IC50 range headings. As to the method: The enzymatic HDAC8 assay was performed using electrophoretic mobility shift assay. Full length human recombinant HDAC8 protein was expressed in baculoviral system and purified by affinity chromatography. The enzymatic reactions were assembled in 384 well plates in a total volume of 25 μL in a reaction buffer composing: 100 mM HEPES, pH7.5, 25 mM KC, 0.1% bovine serum albumin, 0.01% Triton X-100, 1% DMSO (from compounds) 2 μM of the fluorescently labeled peptide substrate and enzyme. The enzyme was added at a final concentration of 1 nM. The peptide substrate RHKK(Ac)-NH2 was used. The compounds were tested at 12 concentrations spaced by 3× dilution intervals. Negative control samples (0%-inhibition in the absence of inhibitor) and positive control samples (100%-inhibition) were assembled in replicates of four in each assay plate. The reactions were incubated at 25° C. and quenched by the addition of 45 μL of termination buffer (100 mM HEPES, pH 7.5, 0.01% Triton X-100, 0.05% SDS).
The terminated assay plates were analyzed on LabChip® 3000 microfluidic electrophoresis instrument (Perkin Elmer/Caliper Life Sciences). The fluorescence intensity of the electrophoretically separated de-acetylated product and substrate peptide was measured. Activity in each sample was determined as the product to sum ratio (PSR): P/(S+P), where P is the peak height of the product peptide and S is the peak height of the substrate peptide. Percent inhibition (Pinh) is determined using the following equation: Pinh=(PSR0%−PSRinh)/(PSR0%−PSR100%)*100, where PSRinh is the product sum ratio in the presence of inhibitor, PSR0% is the average product sum ration in the absence of inhibitor and PSR 100% is the average product sum ratio in 100%-inhibition control samples. The IC50 values of inhibitors were determined by fitting the %-inhibition curves with 4 parameter dose-response model using XLfit 4 software. Ranges of IC50 values for compounds of the invention are disclosed in Table 26.

Bounds are passed on as bounds.

`O=C(/C=C/c1ccccc1N1CCN(Cc2ccc3c(c2)OC(F)(F)O3)CC1)NO` [Example I-173, (E)-3-(2-(4-((2,2-difluorobenzo[d][1,3]dioxol-5-yl)methyl)piperazin-1-yl)phenyl)-N-hydroxyacrylamide]: the IC50 was < 1 µM. Take `CN(C)Cc1ccccc1CNC1CCN(c2ccccc2C=CC(=O)NO)CC1` [Example I-17, (E)-3-(2-(4-((2-((dimethylamino)methyl)benzyl)amino)piperidin-1-yl)phenyl-N-hydroxyacrylamide]: the IC50 was in the range of 1 to 10 µM. In the case of `O=C(/C=C/c1ccccc1NC(=O)c1cc2ccccn2n1)NO` [Example I-82, (E)-N-(2-(3-(hydroxyamino)-3-oxoprop-1-en-1-yl)phenyl)pyrazolo[1,5-a]pyridine-2-carboxamide], the IC50 was < 1 µM.

As for `Cc1nc(C(C)(C)C)sc1C(=O)Nc1ccccc1/C=C/C(=O)NO` [Example I-283, (E)-2-(tert-butyl)-N-(2-(3-(hydroxyamino)-3-oxoprop-1-en-1-yl)phenyl)-4-methylthiazole-5-carboxamide], the IC50 was < 1 µM.

For `CC(C(=O)Nc1ccccc1/C=C/C(=O)NO)N1CCS(=O)(=O)CC1` (stereo not shown) [Example I-63, (E)-3-(2-(2-(1,1-dioxidothiomorpholino)propanamide)phenyl)-N-hydroxyacrylamide], the IC50 is < 1 µM. Turning to `O=C(/C=C/c1ccccc1N1CCN(Cc2cccc(C(F)(F)F)c2)CC1)NO` [Example I-171, (E)-N-hydroxy-3-(2-(4-(3-(trifluoromethyl)benzyl)piperazin-1-yl)phenyl)acrylamide], the concentration for half-maximal inhibition (IC50) is < 1 µM.

For `O=C(/C=C/c1ccccc1NCc1cccc(C(F)(F)F)c1)NO` [Example I-46, (E)-N-hydroxy-3-(2-((3-(trifluoromethyl)benzyl)amino)phenyl)acrylamide], the IC50 is < 1 µM. As to `Cn1cncc1C(=O)N1CCN(c2ccccc2/C=C/C(=O)NO)CC1` [Example I-199, (E)-N-hydroxy-3-(2-(4-(1-methyl-1H-imidazole-5-carbonyl)piperazin-1-yl)phenyl)acrylamide], the IC50 was < 1 µM. The figure for `O=C(/C=C/c1ccccc1N1CCN(C(=O)c2ccc(F)cn2)CC1)NO` [Example I-202, (E)-3-(2-(4-(5-fluoropicolinoyl)piperazin-1-yl)phenyl)-N-hydroxyacrylamide] is < 1 µM; for `CC(C)(C)OC(=O)N1CCCC2(CCN(c3ccccc3/C=C/C(=O)NO)CC2)C1` [Example I-109, tert-butyl (E)-9-(2-(3-(hydroxyamino)-3-oxoprop-1-en-1-yl)phenyl)-2,9-diazaspiro[5.5]undecane-2-carboxylate] it is < 1 µM. Take `O=C(/C=C/c1ccccc1NCc1ccc(-c2ccccn2)cc1)NO` [Example I-92, (E)-N-hydroxy-3-(2-((4-(pyridin-2-yl)benzyl)amino)phenyl)acrylamide]: the IC50 was < 1 µM. As to `O=C(/C=C/c1ccccc1C(=O)N1CC(N2CCS(=O)(=O)CC2)C1)NO` [II-10, (E)-3-(2-(3-(1,1-dioxidothiomorpholino)azetidine-1-carbonyl)phenyl)-N-hydroxyacrylamide], the IC50 was in the range of 1 to 10 µM. With `O=C(/C=C/c1ccccc1N1CCC(NS(=O)(=O)c2cccc3cnccc23)CC1)NO` [Example I-232, (E)-N-hydroxy-3-(2-(4-(isoquinoline-5-sulfonamido)piperidin-1-yl)phenyl)acrylamide], the IC50 was < 1 µM. With `O=C(/C=C/c1ccccc1N1CCC(NC(=O)c2ccc3cnccc3n2)CC1)NO` [Example I-147, (E)-N-(1-(2-(3-(hydroxyamino)-3-oxoprop-1-en-1-yl)phenyl)piperidin-4-yl)-1,6-naphthyridine-2-carboxamide] the figure was < 1 µM. Take `COc1ccccc1S(=O)(=O)N1CCN(c2ccccc2/C=C/C(=O)NO)CC1` [Example I-31, (E)-N-hydroxy-3-(2-(4-((2-methoxyphenyl)sulfonyl)piperazin-1-yl)phenyl)acrylamide]: the IC50 was 1 to 10 µM. The figure for `O=C(/C=C/c1ccccc1N1CCN(S(=O)(=O)Cc2ccc(Cl)cc2F)CC1)NO` [Example I-259, (E)-3-(2-(4-((4-chloro-2-fluorobenzyl)sulfonyl)pi-perazin-1-yl)phenyl)-N-hydroxyacrylamide] is < 1 µM; for `CCCc1nc(-c2ccccc2)sc1C(=O)Nc1ccccc1/C=C/C(=O)NO` [Example I-276, (E)-N-(2-(3-(hydroxyamino)-3-oxoprop-1-en-1-yl)phenyl)-2-phenyl-4-propylthiazole-5-carboxamide] it is < 1 µM. With `O=C(/C=C/c1ccccc1N1CCN(C(=O)Cc2cccs2)CC1)NO` [Example I-196, (E)-N-hydroxy-3-(2-(4-(2-(thiophen-2-yl)acetyl)piperazin-1-yl)phenyl)acrylamide], the IC50 was < 1 µM. Turning to `O=C(/C=C/c1ccccc1N1CCC(NC(=O)c2ccoc2)CC1)NO` [Example I-159], the 50% inhibitory concentration (IC50) was < 1 µM. The figure for `O=C(/C=C/c1ccccc1N1Cc2ccccc2C1=O)NO` [Example I-308, (E)-N-hydroxy-3-(2-(1-oxoisoindolin-2-yl)phenyl)acrylamide] is < 1 µM; for `O=C(/C=C/c1cccnc1CNc1ccc(-c2ccccc2)c(C(F)(F)F)c1)NO` [Example I-217, (E)-N-hydroxy-3-(2-(((2-(trifluoromethyl)-[1,1′-biphenyl]-4-yl)amino)methyl)pyridin-3-yl)acrylamide] it is < 1 µM. `O=C(/C=C/c1ccccc1C(=O)N1CCS(=O)(=O)CC1)NO` [II-24, (E)-3-(2-(1,1-dioxidothiomorpholine-4-carbonyl)phenyl)-N-hydroxyacrylamide]: the IC50 was < 1 µM. Turning to `Cc1oc(-c2ccc(Cl)cc2)cc1C(=O)N1CCN(c2ccccc2/C=C/C(=O)NO)CC1` [Example I-214, (E)-3-(2-(4-(5-(4-chlorophenyl)-2-methylfuran-3-carbonyl)piperazin-1-yl)phenyl)-N-hydroxyacrylamide], the IC50 is < 1 µM. As to `COc1ccc(CC(=O)N2CCN(c3ccccc3/C=C/C(=O)NO)CC2)cc1` [Example I-195, (E)-N-hydroxy-3-(2-(4-(2-(4-methoxyphenyl)acetyl)pi-perazin-1-yl)phenyl)acrylamide], the IC50 was < 1 µM. Consider `CC(C)S(=O)(=O)NC1CCN(c2ccccc2/C=C/C(=O)NO)CC1` [Example I-26], for which the IC50 was 1 to 10 µM.

For `CC(C)c1ccc(S(=O)(=O)NC2CCN(c3ccccc3/C=C/C(=O)NO)CC2)cc1` [Example I-225, (E)-N-hydroxy-3-(2-(4-((4-isopropylphenyl)sulfon-amido)piperidin-1-yl)phenyl)acrylamide], the IC50 was < 1 µM.

`CCCCN1CCN(c2ccccc2/C=C/C(=O)NO)CC1` [Example I-177, (E)-3-(2-(4-butylpiperazin-1-yl)phenyl)-N-hydroxyacrylamide]: the IC50 was < 1 µM.

With `O=C(/C=C/c1cccnc1NC(=O)c1cccc(C(F)(F)F)c1)NO` [Example I-122], the IC50 was < 1 µM. Regarding `O=C(/C=C/c1ccccc1N1CCC(NC(=O)C2CCC(F)(F)CC2)CC1)NO` [Example I-142, (E)-4,4-difluoro-N-(1-(2-(3-(hydroxyamino)-3-oxoprop-1-en-1-yl)phenyl)piperidin-4-yl)cyclohexane-1-carboxamide], the IC50 is < 1 µM. As for `Cc1cc(C(=O)N2CCN(c3ccccc3/C=C/C(=O)NO)CC2)n[nH]1` [Example I-198, (E)-N-hydroxy-3-(2-(4-(5-methyl-1H-pyrazole-3-carbonyl)piperazin-1-yl)phenyl)acrylamide], the IC50 was < 1 µM.

Take `CN(Cc1cccc(C(F)(F)F)c1)c1ccccc1/C=C/C(=O)NO` [Example I-119, (E)-N-hydroxy-3-(2-(methyl(3-(trifluoromethyl)benzyl)amino)phenyl)acrylamide]: the IC50 was < 1 µM. As for `O=C(/C=C/c1ccccc1N1CCC(NC(=O)CC23CCCN2CCC3)CC1)NO` [Example I-146], the IC50 is < 1 µM. Regarding `O=C(/C=C/c1ccccc1NC(=O)Nc1cccc(C(F)(F)F)c1)NO` [Example I-5, (E)-N-hydroxy-3-(2-(3-(3-(trifluoromethyl)phenyl)ureido)phenyl)acrylamide], the IC50 lay in the range of 1 to 10 µM. With `CC(=O)N1CCN(c2ccccc2/C=C/C(=O)NO)CC1` [Example I-193, (E)-3-(2-(4-actylpiperazin-1-yl)phenyl)-N-hydroxyacrylamide] the figure was < 1 µM.
